Results taken from US20240423977A1, “FIVE-MEMBERED RING-FUSED SIX-MEMBERED RING COMPOUND, PREPARATION METHOD THEREFOR, AND PHARMACEUTICAL COMPOSITION AND USE THEREOF” (HANGZHOU POLYMED BIOPHARMACEUTICALS, INC., priority 2022, published 2024).

Assays:
[1] = target: IRAK4 protein in THP-1 cells (Homo sapiens (Human), UniProt Q9NWZ3); assay: PROTAC-induced IRAK4 protein degradation in THP-1 cells (Western Blot); format: cell-based; details: for DC50: concentration that degraded 50% of IRAK4, Western blotting, 24 hours after administration; for IRAK4 degradation rate 24 hours after administration of the compounds with a concentration of 1 μM: Western blotting
Chain of IRAK4 protein in THP-1 cells (Q9NWZ3 whole entry): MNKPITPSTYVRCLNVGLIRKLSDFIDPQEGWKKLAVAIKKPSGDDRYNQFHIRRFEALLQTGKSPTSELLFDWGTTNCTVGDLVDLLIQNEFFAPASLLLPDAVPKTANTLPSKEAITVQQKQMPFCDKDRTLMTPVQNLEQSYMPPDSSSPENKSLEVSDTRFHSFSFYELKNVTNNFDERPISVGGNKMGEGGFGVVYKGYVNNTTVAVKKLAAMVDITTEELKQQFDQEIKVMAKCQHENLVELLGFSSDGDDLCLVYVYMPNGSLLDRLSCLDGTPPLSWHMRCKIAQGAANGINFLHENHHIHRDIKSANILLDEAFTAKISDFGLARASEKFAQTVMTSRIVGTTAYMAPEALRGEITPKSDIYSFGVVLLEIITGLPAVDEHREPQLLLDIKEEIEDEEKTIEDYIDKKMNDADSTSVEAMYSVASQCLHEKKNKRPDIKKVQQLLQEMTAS
Method: 2.1 Based on the experimental method of Western Blot, specific antibodies were used to stain the THP-1 cell samples treated by gel electrophoresis, and the degrading activity of the compounds on the IRAK4 protein in THP-1 cells was determined by analyzing the position and depth of staining. The concentrations of compound for the detection included 0 μM, 0.3 μM, 1 μM and 3 μM, and the cells were treated by the compound for 8 hours, 16 hours, 24 hours, and 48 hours. Glyceraldehyde-3-phosphate dehydrogenase (GAPDH) is an internal reference protein in this experiment.
Electrophoresis buffer: 50 mL MOPS SDS Running Buffer (20×) and 50 mL 20×TBS Tween-20 buffer were diluted with deionized water to 1 L as the electrophoresis buffer;
5% skim milk (w/v): 2.5 g skim milk was diluted with 50 mL 1×TBS Tween-20 buffer to prepare 5% skim milk;
5% BSA (w/v): 2.5 g BSA was diluted with 50 mL 1×TBS Tween-20 buffer to prepare 5% BSA;
Anti-IRAK4 antibody was diluted with 5% BSA at 1:1000 into a primary antibody working solution;
Goat Anti-Rabbit IgG H&L (HRP) was diluted with 5% BSA at 1:2000 into a second antibody working solution; and
Goat Anti-Mouse IgG H&L (HRP) was diluted with 5% BSA at 1:2000 into a second antibody working solution.
THP-1 cells were plated in a 6-well plate at a density of 1.5×10^6 cells per ml and incubated for 2 hours in a cell culture incubator under 37° C. and 5% CO2. The compound was diluted with DMSO to 0.6 mM, 0.2 mM and 0.06 mM respectively. 10 μL of compound solution was added to the corresponding wells, and continued to incubate in the incubator for 16 hours, 24 hours and 48 hours respectively. The compound-treated THP-1 cells in the well were collected, added with 120 μL of RIPA lysate containing protease inhibitor, Phosphatase Inhibitor Cocktail 2 and Phosphatase Inhibitor Cocktail 3, lysed on wet ice for 30 minutes, and then the cells lysate was centrifuged at a high speed and a low temperature for 5 minutes to collect the supernatant. The protein concentration of the cell sample was determined according to the instructions in the Pierce™ BCA Protein Assay Kit.
The concentration of the sample was adjusted to be consistent using lysis buffer and NuPAGE® LDS sample buffer containing 1M DTT. The samples were heated at 95° C. for 5 minutes and centrifuged at a low temperature and at a high speed. 20 μL of the prepared protein sample and 4 μL of PageRuler Prestained Protein Ladder were added into the gel well for running at 80V voltage for 0.5 hours, then the voltage was adjusted to 120V for further running for 1.5 hours. The gel was removed and the proteins in the gel were transferred to the IBlotTM 2 transfer membrane set at 20V. After successful transfer, bands at 65 kDa-40 kDa and 40 kDa-30 kDa were cut respectively. The membranes were blocked with 5% skim milk for 1 hour at room temperature. The membranes were washed three times with 1× concentration of TBST, then incubated with IRAK4 antibody working solution overnight at 4° C. The IRAK4 antibody working solution was discarded, and the membranes were washed three times with 1×concentration of TBST, and incubated with Goat Anti-Rabbit IgG H&L (HRP) working solution and Goat Anti-Mouse IgG H&L (HRP) working solution at room temperature. After 1 hour of incubation, the antibody working solution was discarded and the membranes were washed three times with 1× concentration of TBST. According to the instructions of the kit SuperSignal™ West Femto Maximum Sensitivity Substrate, the reagents in the kit were mixed in equal volume proportions to prepare a luminescent liquid mixture. The membranes were incubated for 1 minute, then removed for exposure.
The results of Western blotting 24 hours after administration of the compounds with a concentration of 1 μM were shown in Table 3: […]

[2] = target: kinase IRAK4 (Homo sapiens (Human), UniProt Q9NWZ3); assay: Inhibitory effects of compounds on kinase activity (fluorescence microfluidic mobility detection, competitive with ATP); format: biochemical; details: IRAK4 6 nM, ATP 10 μM
Chain of kinase IRAK4 (Q9NWZ3 whole entry): as above
Method: Based on an experimental method of fluorescence microfluidic mobility detection, an IC50 value of competitive binding of kinase IRAK4 to ATP by the compounds was determined. The initial detection concentration of the compounds was 10 μM, diluted 4-fold gradient down to […], and tested in duplicate. Among them, commercial staurosporine was the standard control substance in this experiment.
1) IRAK4 kinase was dissolved in kinase buffer (50 mM HEPES pH 7.5, 10 mM MgCl2, 2 mM DTT and 0.01% Brij-35) to a final concentration of 6 nM.
2) The substrate peptide FAM-P8 and ATP were dissolved in the above kinase buffer. The final concentrations of the IRAK4 substrate peptide FAM-P8 and ATP were 3 μM and 10 μM respectively.
3) Dilution of the compounds: the compound was first diluted to 50 μM, and then diluted down with a 4-fold gradient of DMSO. The solution without the compound and kinase is used as a blank control, corresponding to the “minimum value” shown below; and the solution without the compound but with kinase, adenosine 5′-triphosphate disodium salt hydrate, DMSO and buffer is used as a positive control, corresponding to the “maximum value” shown below. 4) Kinase reaction and termination: 10 μL of kinase buffer was added to a 384-well plate containing 5 μL of the compound to be tested, and incubated at room temperature for 10 minutes. Another 10 μL of buffer containing the substrate peptide and adenosine 5′-triphosphate disodium salt hydrate was added to the 384-well plate. After incubation at 28° C. for one hour, 25 μL stop solution (100 mM HEPES pH 7.5, 50 mM EDTA, 0.2% Coating Reagent #3 and 0.015% Brij-35) was added to each well to terminate the reaction.
5) Data reading: the CaliperEZ Reader II instrument was used to read the conversion rate data. Conditions: downstream voltage −500V, upstream voltage −2250V, base pressure −0.5 PSI, and screening pressure −1.2 PSI.
6) Data calculation: the conversion rate data was copied from CaliperEZ Reader II and converted into inhibition rate data. The calculation formula is as follows:
[formula] • IC50 values were fitted using XLFit excel add-in version 5.4.0.8,
Y=Bottom+(Top−Bottom)/(1+(IC50/X)^HillSlope) Fitting formula: […]

SMILES	DC50 [1] [nM]	IC50 ([2]; Table 2, substrate FAM-P8 3 μM) [nM]	IRAK4 degradation rate 24 hours after administration of the compounds with a concentration of 1 μM [1]	IC50 ([2]; Table 1, class symbols) [nM]
COc1cc2nn(C3CC4(CCN(C(=O)C5CCN(c6cc7c(cc6F)C(=O)N([C@H]6CCC(=O)NC6=O)C7=O)CC5)CC4)C3)cc2cc1NC(=O)c1cccc(C(F)(F)F)n1 [Compound I-61]	7.62	31.4	–	–
COc1cc2nn(C3CC4(CCN(C(=O)C5CCN(c6cc7c(cc6F)C(=O)N([C@@H]6CCC(=O)NC6=O)C7=O)CC5)CC4)C3)cc2cc1NC(=O)c1cccc(C(F)(F)F)n1 [Compound I-62]	3.26	19	–	–
CC(C)(O)c1cc2nn(C3CC4(CCN(C(=O)C5CCN(c6ccc7c(c6)C(=O)N([C@H]6CCC(=O)NC6=O)C7=O)CC5)CC4)C3)cc2cc1NC(=O)c1cccc(C(F)(F)F)n1 [Compound I-63]	2.41	32.1	–	–
Cc1cccc(C(=O)Nc2cc3cn(C4CC5(CCN(C(=O)C6CCN(c7ccc8c(c7)C(=O)N([C@@H]7CCC(=O)NC7=O)C8=O)CC6)CC5)C4)nc3cc2C(C)(C)O)n1 [Compound I-64]	2.32	22.7	–	–
COc1cc2nn(C3CC4(CCN(C(=O)C5CCN(c6ccc7c(c6)C(=O)N([C@H]6CCC(=O)NC6=O)C7=O)CC5)CC4)C3)cc2cc1NC(=O)c1cccc(C(F)(F)F)n1 [Compound I-65]	3.71	26.3	–	–
COc1cc2nn(C3CC4(CCN(C(=O)C5CCN(c6ccc7c(c6)C(=O)N([C@@H]6CCC(=O)NC6=O)C7=O)CC5)CC4)C3)cc2cc1NC(=O)c1cccc(C(F)(F)F)n1 [Compound I-66]	3.14	25.3	–	–
COc1cc2nn(C3CC4CCC(C3)N4CC(=O)N3CCN(c4ccc5c(c4)C(=O)N(C4CCC(=O)NC4=O)C5=O)CC3)cc2cc1NC(=O)c1cccc(C(F)(F)F)n1 (centres unmarked) [II-13]	478	10.5	–	< 100

Next, values leading:

DC50 [1] [nM]	IC50 ([2]; Table 2, substrate FAM-P8 3 μM) [nM]	IRAK4 degradation rate 24 hours after administration of the compounds with a concentration of 1 μM [1]	IC50 ([2]; Table 1, class symbols) [nM]	SMILES
32.8	34	–	–	O=C1CCC(N2C(=O)c3ccc(N4CCN(C(=O)CN5CCC(n6cc7cc(NC(=O)c8cccc(C(F)(F)F)n8)c(OC(F)(F)F)cc7n6)CC5)CC4)cc3C2=O)C(=O)N1 (centres unmarked) [II-2]
12.4	20	50~75%	< 100	COc1cc2nn(C3CCN(C(=O)CN4CCN(c5ccc6c(c5)C(=O)N(C5CCC(=O)NC5=O)C6=O)CC4)CC3)cc2cc1NC(=O)c1cccc(C(F)(F)F)n1 (centres unmarked) [II-4]
6.15	11	75~100%	< 100	COc1cc2nn(C3CCN(CC(=O)N4CCN(c5cc6c(cc5F)C(=O)N(C5CCC(=O)NC5=O)C6=O)CC4)CC3)cc2cc1NC(=O)c1cccc(C(F)(F)F)n1 (centres unmarked) [II-5]
9.99	8.2	75~100%	< 100	CC(C)(O)c1cc2nn(C3CCN(CC(=O)N4CCN(c5ccc6c(c5)C(=O)N(C5CCC(=O)NC5=O)C6=O)CC4)CC3)cc2cc1NC(=O)c1cccc(C(F)(F)F)n1 (centres unmarked) [II-6]
2.2	3.57	–	–	COc1cc2nn(C3CCN(CC(=O)N4CCN(c5ccc6c(c5)CN(C5CCC(=O)NC5=O)C6=O)CC4)CC3)cc2cc1NC(=O)c1cccc(C(F)(F)F)n1 (centres unmarked) [II-7]
5.98	7.45	–	< 100	COc1cc2nn(C3CCN(C(C)C(=O)N4CCN(c5ccc6c(c5)C(=O)N(C5CCC(=O)NC5=O)C6=O)CC4)CC3)cc2cc1NC(=O)c1cccc(C(F)(F)F)n1 (centres unmarked) [II-10]
20.5	14.2	–	< 100	COc1cc2nn(C3CCN(C4CC5(CCN(c6ccc7c(c6)C(=O)N(C6CCC(=O)NC6=O)C7=O)CC5)C4)CC3)cc2cc1NC(=O)c1cccc(C(F)(F)F)n1 (centres unmarked) [II-12]
32.9	14	<25%	< 100	COc1cc2nn(C3CCN(C(=O)C4CCN(Cc5ccc6c(c5)C(=O)N(C5CCC(=O)NC5=O)C6=O)CC4)CC3)cc2cc1NC(=O)c1cccc(C(F)(F)F)n1 (centres unmarked) [II-16]
> 1000	11	<25%	< 100	COc1cc2nn(C3CCN(C4CCN(C(=O)c5ccc6c(c5)C(=O)N(C5CCC(=O)NC5=O)C6=O)CC4)CC3)cc2cc1NC(=O)c1cccc(C(F)(F)F)n1 (centres unmarked) [II-17]
14.1	5.5	–	–	COc1cc2nn(C3CCN(CC(=O)N4CCN(c5cccc6c5C(=O)N(C5CCC(=O)NC5=O)C6=O)CC4)CC3)cc2cc1NC(=O)c1cccc(C(F)(F)F)n1 (centres unmarked) [II-20]
